One compound from article PMC8645336, “Benchmarking a highly selective USP30 inhibitor for enhancement of mitophagy and pexophagy” (Life Science Alliance, 2021) can be followed below.

Experiment in all cases: biochemical
What all share (parameters): Ubiquigent DUB profiler selectivity panel, remaining enzyme activity as % of control
Common to all, as to details: read-out: % of control remaining

Test [1] concerns the target T1, USP27x (Homo sapiens, UniProt A6NNY8).
T1 sequence (A6NNY8 1-438): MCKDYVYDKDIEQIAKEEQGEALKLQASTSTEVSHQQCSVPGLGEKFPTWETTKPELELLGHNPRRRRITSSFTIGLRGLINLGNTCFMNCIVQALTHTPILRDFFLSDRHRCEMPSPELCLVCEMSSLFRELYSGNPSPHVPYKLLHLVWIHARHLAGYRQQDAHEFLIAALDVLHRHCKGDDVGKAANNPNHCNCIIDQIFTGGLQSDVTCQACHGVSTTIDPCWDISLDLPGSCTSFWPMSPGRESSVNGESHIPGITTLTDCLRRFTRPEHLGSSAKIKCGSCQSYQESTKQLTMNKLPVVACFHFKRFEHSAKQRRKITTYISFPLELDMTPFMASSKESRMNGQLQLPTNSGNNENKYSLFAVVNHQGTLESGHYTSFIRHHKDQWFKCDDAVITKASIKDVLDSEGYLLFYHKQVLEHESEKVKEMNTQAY
On the procedure:
(§1) Previous work has reported IC50 values for a series of benzosulphonamide inhibitors, of which all those <1 μM were screened for selectivity, in comparison to three other USP family members ([20], [21]). We have selected one of these compounds (CMPD-39, Fig 1A) for a more rigorous test of selectivity provided by the Ubiquigent DUB profiler screening platform comprising >40 DUBs. […] To test engagement of the inhibitor with USP30 applied to intact cells, we assayed competition with Ub-PA (Ub-propargylamide). Ub-PA covalently binds to the USP30 active site leading to a characteristic upshift on a SDS–PAGE gel ([22]). If a drug blocks access to the catalytic site, then the probe modification is blocked and the apparent molecular weight of USP30 shifts down accordingly. […] A robust proxy read-out for target engagement is the enhancement of TOMM20 ubiquitylation after mitochondrial depolarization ([6], [16]). This second assay indicates a maximal effect with 200 nM CMPD-39 applied to RPE1-YFP-PRKN cells (Fig 1D).  Figure 1. CMPD-39 is a selective USP30 inhibitor. (A) Chemical structure of CMPD-39. (B) DUB specificity screen (DUB profiler, Ubiquigent) with 1-100 μM CMPD-39. […] Samples were incubated with CMPD-39 for 2 h at the indicated concentrations, then incubated with HA-Ub-PA probe for 10 min at 37°C and immunoblotted as shown. Red arrow indicates unbound USP30; blue arrow represents probe bound USP30. (D) Inhibition of USP30 enhances the ubiquitylation of TOMM20 in YFP-PRKN over-expressing hTERT-RPE1 cells in a concentration dependent manner in response to mitophagy induction. Cells were treated for 1 h with DMSO or antimycin A and oligomycin A (AO; 1 μM each) in the absence or presence of CMPD-39 at the indicated concentrations, lysed, and analyzed by Western blotting. Black arrow indicates unmodified TOMM20, ubiquitylated species are indicated by red (mono-ubiquitylated) or blue arrow heads. […] Source data are available for this figure.

Test [2] deals with T2, JOSD2 (Homo sapiens, UniProt Q8TAC2).
T2 sequence (Q8TAC2 1-188): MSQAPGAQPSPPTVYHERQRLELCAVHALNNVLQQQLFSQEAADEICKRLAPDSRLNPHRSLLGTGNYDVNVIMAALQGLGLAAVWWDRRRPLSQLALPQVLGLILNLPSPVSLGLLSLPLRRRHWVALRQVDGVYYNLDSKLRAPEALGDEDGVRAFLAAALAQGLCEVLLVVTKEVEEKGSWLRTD
On the procedure: as §1

Test [3] deals with USP16 (Homo sapiens, UniProt Q9Y5T5). On the procedure: as §1
Test [4] has as its target USP9x (Homo sapiens, UniProt Q93008). On the procedure: as §1
The target of test [5] is T3, USP14 (+Proteasome-VS@Kd) (Homo sapiens, UniProt P54578).
T3 construct: +Proteasome-VS@Kd
T3 sequence (P54578 whole entry): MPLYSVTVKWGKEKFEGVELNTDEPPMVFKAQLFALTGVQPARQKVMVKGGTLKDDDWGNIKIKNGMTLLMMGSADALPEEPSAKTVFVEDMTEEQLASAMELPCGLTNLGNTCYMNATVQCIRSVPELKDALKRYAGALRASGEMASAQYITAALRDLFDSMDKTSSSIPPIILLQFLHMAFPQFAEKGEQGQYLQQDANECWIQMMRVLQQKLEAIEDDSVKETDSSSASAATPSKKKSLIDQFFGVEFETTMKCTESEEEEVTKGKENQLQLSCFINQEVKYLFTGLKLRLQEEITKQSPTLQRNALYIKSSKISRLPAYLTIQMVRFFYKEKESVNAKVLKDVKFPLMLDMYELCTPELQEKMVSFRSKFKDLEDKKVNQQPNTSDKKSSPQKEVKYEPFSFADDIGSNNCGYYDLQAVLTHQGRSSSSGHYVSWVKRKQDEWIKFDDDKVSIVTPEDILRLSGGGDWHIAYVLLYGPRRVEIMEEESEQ
On the procedure: as §1

Test [6] addresses T4, AMSH-LP (+Zinc) (Homo sapiens, UniProt Q96FJ0).
T4 construct: gene STAMBPL1; +Zinc
T4 sequence (Q96FJ0 1-436): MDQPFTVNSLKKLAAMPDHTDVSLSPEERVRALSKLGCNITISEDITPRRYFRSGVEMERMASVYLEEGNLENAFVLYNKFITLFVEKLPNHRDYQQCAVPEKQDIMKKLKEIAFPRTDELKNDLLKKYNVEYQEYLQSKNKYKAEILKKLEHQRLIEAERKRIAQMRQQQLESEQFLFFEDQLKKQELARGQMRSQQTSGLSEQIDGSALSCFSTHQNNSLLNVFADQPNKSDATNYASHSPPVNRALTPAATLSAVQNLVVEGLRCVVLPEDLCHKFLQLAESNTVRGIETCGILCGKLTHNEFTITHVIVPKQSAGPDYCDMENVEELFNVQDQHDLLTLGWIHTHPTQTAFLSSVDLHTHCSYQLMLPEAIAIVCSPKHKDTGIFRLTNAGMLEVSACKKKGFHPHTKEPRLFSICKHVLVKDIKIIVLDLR
On the procedure:
as §1

Test [7] addresses USP12/UAF1/WDR20 (Homo sapiens, UniProt O75317). On the procedure: as §1

Sequence of USP9x (Q93008 whole entry): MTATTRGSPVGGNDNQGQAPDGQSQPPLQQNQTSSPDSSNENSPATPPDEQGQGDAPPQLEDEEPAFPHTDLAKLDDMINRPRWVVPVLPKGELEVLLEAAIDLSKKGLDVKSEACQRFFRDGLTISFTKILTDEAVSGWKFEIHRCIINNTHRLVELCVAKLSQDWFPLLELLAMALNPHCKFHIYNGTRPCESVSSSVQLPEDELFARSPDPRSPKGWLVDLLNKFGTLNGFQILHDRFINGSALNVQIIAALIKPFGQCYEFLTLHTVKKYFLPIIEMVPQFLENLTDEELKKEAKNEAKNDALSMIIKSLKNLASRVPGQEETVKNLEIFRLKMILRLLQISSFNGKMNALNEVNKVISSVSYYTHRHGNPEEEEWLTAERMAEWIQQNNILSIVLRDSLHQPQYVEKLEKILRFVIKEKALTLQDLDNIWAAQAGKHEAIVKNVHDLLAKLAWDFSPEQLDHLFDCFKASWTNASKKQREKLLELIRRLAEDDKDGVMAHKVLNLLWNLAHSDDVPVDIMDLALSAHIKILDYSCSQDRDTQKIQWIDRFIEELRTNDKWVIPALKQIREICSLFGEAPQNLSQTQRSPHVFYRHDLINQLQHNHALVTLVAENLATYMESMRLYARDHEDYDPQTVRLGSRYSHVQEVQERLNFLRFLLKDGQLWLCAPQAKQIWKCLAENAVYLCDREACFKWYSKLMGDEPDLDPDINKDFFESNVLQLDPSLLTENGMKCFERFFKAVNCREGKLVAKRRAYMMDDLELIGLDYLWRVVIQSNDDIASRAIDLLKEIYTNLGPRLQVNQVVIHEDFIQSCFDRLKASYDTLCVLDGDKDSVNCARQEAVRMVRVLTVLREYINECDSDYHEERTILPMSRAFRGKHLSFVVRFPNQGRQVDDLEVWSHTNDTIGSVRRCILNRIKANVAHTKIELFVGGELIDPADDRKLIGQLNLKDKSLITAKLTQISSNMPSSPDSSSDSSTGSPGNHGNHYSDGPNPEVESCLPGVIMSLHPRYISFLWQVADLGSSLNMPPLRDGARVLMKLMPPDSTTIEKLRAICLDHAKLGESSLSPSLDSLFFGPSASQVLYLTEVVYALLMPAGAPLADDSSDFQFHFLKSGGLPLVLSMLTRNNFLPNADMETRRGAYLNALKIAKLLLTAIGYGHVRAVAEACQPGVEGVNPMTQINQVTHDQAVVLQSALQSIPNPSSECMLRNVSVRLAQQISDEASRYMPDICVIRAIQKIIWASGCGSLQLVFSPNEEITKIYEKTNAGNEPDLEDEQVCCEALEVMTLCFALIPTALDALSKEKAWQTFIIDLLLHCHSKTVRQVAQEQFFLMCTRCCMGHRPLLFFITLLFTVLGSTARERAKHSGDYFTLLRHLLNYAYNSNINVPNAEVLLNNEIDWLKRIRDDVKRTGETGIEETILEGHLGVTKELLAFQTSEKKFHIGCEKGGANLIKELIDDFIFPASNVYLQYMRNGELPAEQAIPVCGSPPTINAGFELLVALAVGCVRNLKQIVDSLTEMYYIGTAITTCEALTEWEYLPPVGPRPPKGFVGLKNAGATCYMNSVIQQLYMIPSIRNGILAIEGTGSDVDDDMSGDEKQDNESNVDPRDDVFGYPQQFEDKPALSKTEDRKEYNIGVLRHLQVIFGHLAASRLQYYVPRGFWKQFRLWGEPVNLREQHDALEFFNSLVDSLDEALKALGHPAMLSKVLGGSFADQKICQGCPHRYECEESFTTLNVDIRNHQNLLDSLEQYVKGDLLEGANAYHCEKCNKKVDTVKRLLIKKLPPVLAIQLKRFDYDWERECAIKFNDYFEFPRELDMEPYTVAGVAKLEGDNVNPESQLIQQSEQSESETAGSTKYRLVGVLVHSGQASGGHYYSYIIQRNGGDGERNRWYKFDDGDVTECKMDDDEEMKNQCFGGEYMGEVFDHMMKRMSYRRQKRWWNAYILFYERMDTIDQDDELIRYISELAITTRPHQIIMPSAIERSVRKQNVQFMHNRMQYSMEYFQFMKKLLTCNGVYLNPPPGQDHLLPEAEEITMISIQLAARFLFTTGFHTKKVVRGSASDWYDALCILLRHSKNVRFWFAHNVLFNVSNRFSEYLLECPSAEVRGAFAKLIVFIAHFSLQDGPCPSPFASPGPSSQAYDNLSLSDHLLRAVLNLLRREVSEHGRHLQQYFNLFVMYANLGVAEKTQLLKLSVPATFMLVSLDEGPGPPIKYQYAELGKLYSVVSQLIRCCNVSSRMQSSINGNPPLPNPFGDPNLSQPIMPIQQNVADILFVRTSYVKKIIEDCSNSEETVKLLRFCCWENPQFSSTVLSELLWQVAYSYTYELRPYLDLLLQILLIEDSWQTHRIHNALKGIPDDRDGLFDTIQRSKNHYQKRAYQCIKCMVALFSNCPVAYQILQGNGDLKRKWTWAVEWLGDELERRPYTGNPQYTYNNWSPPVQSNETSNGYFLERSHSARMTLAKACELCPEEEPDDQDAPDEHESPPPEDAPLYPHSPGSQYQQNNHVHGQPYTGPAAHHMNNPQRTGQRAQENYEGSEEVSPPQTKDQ
Sequence of USP12/UAF1/WDR20 (O75317 whole entry): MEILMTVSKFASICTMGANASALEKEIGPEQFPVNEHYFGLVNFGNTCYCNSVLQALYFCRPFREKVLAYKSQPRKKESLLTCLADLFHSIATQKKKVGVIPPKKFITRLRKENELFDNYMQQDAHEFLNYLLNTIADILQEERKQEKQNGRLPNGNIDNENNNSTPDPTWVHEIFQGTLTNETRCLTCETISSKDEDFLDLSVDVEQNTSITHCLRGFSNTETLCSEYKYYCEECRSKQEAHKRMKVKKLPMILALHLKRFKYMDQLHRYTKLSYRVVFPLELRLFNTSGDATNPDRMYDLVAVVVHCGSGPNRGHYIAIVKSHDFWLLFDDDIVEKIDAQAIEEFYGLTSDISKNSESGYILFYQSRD
Sequence of USP12/UAF1/WDR20 (Q8TAF3 whole entry partner): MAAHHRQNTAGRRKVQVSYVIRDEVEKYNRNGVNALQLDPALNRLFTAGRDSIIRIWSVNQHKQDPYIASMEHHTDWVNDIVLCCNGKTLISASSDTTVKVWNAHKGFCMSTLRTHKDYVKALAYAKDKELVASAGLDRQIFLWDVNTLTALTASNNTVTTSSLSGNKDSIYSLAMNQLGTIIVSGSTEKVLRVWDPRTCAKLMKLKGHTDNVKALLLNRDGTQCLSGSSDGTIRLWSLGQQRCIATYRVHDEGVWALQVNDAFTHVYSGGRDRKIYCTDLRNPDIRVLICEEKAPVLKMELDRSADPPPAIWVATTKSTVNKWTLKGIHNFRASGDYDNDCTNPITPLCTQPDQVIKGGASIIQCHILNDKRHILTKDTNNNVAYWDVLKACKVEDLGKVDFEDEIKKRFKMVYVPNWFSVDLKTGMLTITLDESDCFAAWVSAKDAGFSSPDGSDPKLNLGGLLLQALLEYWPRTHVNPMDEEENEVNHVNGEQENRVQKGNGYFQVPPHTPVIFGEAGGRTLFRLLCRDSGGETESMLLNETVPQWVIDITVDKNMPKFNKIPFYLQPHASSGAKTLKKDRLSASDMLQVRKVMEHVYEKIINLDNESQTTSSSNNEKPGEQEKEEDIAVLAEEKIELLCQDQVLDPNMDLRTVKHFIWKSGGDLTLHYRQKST
Sequence of USP12/UAF1/WDR20 (Q8TBZ3 whole entry partner): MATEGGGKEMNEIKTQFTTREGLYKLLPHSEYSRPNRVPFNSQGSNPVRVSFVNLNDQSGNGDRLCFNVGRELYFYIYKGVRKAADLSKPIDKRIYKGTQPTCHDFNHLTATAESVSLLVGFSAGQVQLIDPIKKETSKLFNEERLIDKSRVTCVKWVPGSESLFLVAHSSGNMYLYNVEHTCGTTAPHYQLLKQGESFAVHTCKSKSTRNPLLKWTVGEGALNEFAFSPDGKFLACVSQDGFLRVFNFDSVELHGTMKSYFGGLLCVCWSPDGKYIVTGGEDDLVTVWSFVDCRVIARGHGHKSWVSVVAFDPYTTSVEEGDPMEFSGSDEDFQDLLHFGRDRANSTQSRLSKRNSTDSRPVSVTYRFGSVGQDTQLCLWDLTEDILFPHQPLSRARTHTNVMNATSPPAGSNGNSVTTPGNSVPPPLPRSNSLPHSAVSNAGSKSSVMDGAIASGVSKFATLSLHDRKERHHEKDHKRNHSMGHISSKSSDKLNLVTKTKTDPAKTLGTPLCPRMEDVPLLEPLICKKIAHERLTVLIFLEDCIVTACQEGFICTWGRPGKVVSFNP

Regarding `CC(C)(C)NS(=O)(=O)c1ccc(NC(=O)[C@H](Cc2ccccc2)NC(=O)c2ccc(F)cc2)cc1` [compound 39, CMPD-39], the remaining activity at 1 µM in test [1] was determined as 108%; in test [2] it was 105%; in test [3] it was 111%; in test [4], 104%; in test [5], 107%; in test [6], 106%. The remaining activity at 1 µM in test [7] was found to be 114%. In addition, the remaining activity at 10 µM in test [1] came to 93.8%; in test [2] it was 90.8%; in test [3], 100%; in test [4] it was 108%; in test [5], 100%; in test [6], 101%. Moreover, in test [7], the remaining activity at 10 µM was 106%. The remaining activity at 100 µM in test [1] stood at 93.4%; in test [2], 94.3%; in test [3], 104%; in test [4], 98.3%; in test [5] it was 96.1%; in test [6] it was 97.8%. Also, the remaining activity at 100 µM in test [7] came to 104%.
